Measurements taken from patent US12668600B2 (Kumquat Biosciences Inc., priority 2023, dated 2026).

What was measured:
Type in all cases: biochemical
KRAS G12V = target: T1, KRAS G12V (Homo sapiens, UniProt P01116, G12V); experiment: HTRF KRAS-SOS1 interaction assay, KRAS G12V; conditions: binned ≤2 μM / >2 μM, read-out: Inhibition of KRAS G12V (IC50)
T1 construct: made in house; host or cells: E. coli, e.g. BL21 (DE3)
Method in brief: (§1)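 GST-KRAS + anti-GST-Eu; His-hSOS1 + anti-6His-XL665; cpd in DMSO, duplicate, 10–0.01 μM; ~10 min incubation; HTRF ex 337/em 620, 665 nm; IC50 fitted on 665/620 ratio.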

KRAS G12S = target: T2, KRAS G12S (Homo sapiens, UniProt P01116, G12S); experiment: HTRF KRAS-SOS1 interaction assay, KRAS G12S; conditions: binned ≤2 μM / >2 μM, read-out: Inhibition of KRAS G12S (IC50)
T2 construct: made in house; host or cells: E. coli, e.g. BL21 (DE3)
Method in brief: as §1

KRAS WT = target: T3, KRAS WT (Homo sapiens, UniProt P01116); experiment: HTRF KRAS-SOS1 interaction assay, wildtype KRAS; conditions: binned ≤2 μM / >2 μM, read-out: Inhibition of KRAS WT (IC50)
T3 construct: made in house; host or cells: E. coli, e.g. BL21 (DE3)
Method in brief: as §1

KRAS G12D = target: T4, KRAS G12D (Homo sapiens, UniProt P01116, G12D); experiment: HTRF KRAS-SOS1 interaction assay, KRAS G12D; conditions: binned ≤2 μM / >2 μM, read-out: Inhibition of KRAS G12D (IC50)
T4 construct: made in house; host or cells: E. coli, e.g. BL21 (DE3)
Method in brief: as §1

T3 sequence (P01116 1-188 isoform P01116-2): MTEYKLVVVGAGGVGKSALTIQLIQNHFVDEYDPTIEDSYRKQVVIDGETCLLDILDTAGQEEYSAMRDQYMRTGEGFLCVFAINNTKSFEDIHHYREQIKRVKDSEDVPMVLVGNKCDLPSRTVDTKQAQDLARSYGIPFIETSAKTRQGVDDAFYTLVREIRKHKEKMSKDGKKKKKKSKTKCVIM
T4 sequence (P01116 1-188 isoform P01116-2 G12D): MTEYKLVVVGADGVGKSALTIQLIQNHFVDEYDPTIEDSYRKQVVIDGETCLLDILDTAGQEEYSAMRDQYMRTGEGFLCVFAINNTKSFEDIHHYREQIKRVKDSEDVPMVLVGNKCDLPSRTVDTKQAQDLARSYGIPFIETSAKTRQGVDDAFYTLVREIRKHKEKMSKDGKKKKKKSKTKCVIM
T1 sequence (P01116 1-188 isoform P01116-2 G12V): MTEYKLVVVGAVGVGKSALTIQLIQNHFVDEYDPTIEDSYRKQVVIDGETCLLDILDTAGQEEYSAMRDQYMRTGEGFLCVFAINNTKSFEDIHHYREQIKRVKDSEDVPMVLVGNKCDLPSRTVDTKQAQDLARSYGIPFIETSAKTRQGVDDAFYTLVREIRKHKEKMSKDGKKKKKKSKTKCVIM
T2 sequence (P01116 1-188 isoform P01116-2 G12S): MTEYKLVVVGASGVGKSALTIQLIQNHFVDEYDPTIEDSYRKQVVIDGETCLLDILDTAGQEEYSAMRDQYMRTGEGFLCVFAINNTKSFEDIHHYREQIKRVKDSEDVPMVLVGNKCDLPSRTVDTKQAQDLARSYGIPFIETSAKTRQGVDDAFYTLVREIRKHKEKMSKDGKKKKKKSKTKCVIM

SMILES	IC50 (KRAS G12V) [µM]	IC50 (KRAS G12S) [µM]	IC50 (KRAS WT) [µM]	IC50 (KRAS G12D) [µM]
N#Cc1c(N)sc2c(F)ccc(-c3c(C(F)(F)F)c4c5c(nc(OC[C@@]67CCCN6C[C@H](F)C7)nc5c3F)N([C@H](CCC3CC3)c3cccnc3N)CCO4)c12 (single isomer, unassigned) [Compound 606]	> 2	> 2	> 2	> 2
C[C@H](c1cccnc1N)N1CCOc2c(C(F)(F)F)c(-c3ccc(F)c4sc(N)c(C#N)c34)c(F)c3nc(OCC4(CN5CCC6(CC5)CC6(F)F)CC4)nc1c23 (atropisomer, axis not shown) [Compound 613, 2-amino-4-((S)-4-((R)-1-(2-aminopyridin-3-yl)ethyl)-2-((1-((1,1-difluoro-6-azaspiro[2.5]octan-6-yl)methyl)cyclopropyl)methoxy)-10-fluoro-8-(trifluoromethyl)-5,6-dihydro-4H-[1,4]oxazepino[5,6,7-de]quinazolin-9-yl)-7-fluorobenzo[b]thiophene-3-carbonitrile]	≤ 2	≤ 2	≤ 2	≤ 2
C[C@H](c1nccnc1N)N1CCOc2c(C(F)(F)F)c(-c3ccc(F)c4sc(N)c(C#N)c34)c(F)c3nc(OC[C@@]45CCCN4C[C@@]4(CC4(F)F)C5)nc1c23 [Compound 773, 2-amino-4-(4-((R)-1-(3-aminopyrazin-2-yl)ethyl)-2-(((1S,7a′S)-2,2-difluorodihydro-1′H,3′H-spiro[cyclopropane-1,2′-pyrrolizin]-7a′(5′H)-yl)methoxy)-10-fluoro-8-(trifluoromethyl)-5,6-dihydro-4H-[1,4]oxazepino[5,6,7-de]quinazolin-9-yl)-7-fluorobenzo[b]thiophene-3-carbonitrile]	≤ 2	≤ 2	≤ 2	≤ 2
C[C@H](c1cccnc1N)N1CCOc2c(C(F)(F)F)c(-c3ccc(F)c4sc(N)c(C#N)c34)c(F)c3nc(OC[C@@]45CCCN4CC(C#N)C5)nc1c23 (stereo partly drawn) [Compound 852, (7aS)-7a-(((9-(2-amino-3-cyano-7-fluorobenzo[b]thiophen-4-yl)-4-((R)-1-(2-aminopyridin-3-yl)ethyl)-10-fluoro-8-(trifluoromethyl)-5,6-dihydro-4H-[1,4]oxazepino[5,6,7-de]quinazolin-2-yl)oxy)methyl)hexahydro-1H-pyrrolizine-2-carbonitrile]	> 2	> 2	≤ 2	> 2
C[C@H](c1cc(Cl)cnc1N)N1CCOc2c(C(F)(F)F)c(-c3ccc(F)c4sc(N)c(C#N)c34)c(F)c3nc(OCC4(CN5CCC(=CF)CC5)CC4)nc1c23 [Compound 819, 2-amino-4-(4-((R)-1-(2-amino-5-chloropyridin-3-yl)ethyl)-10-fluoro-2-((1-((4-(fluoromethylene)piperidin-1-yl)methyl)cyclopropyl)methoxy)-8-(trifluoromethyl)-5,6-dihydro-4H-[1,4]oxazepino[5,6,7-de]quinazolin-9-yl)-7-fluorobenzo[b]thiophene-3-carbonitrile]	≤ 2	≤ 2	≤ 2	≤ 2
CC(=O)N1CCC(C[C@H](c2cccnc2N)N2CCOc3c(C(F)(F)F)c(-c4ccc(F)c5sc(N)c(C#N)c45)c(F)c4nc(OC[C@@]56CCCN5C[C@H](F)C6)nc2c34)CC1 [Compound 658, 4-(4-((R)-2-(1-acetylpiperidin-4-yl)-1-(2-aminopyridin-3-yl)ethyl)-10-fluoro-2-(((2R,7aS)-2-fluorotetrahydro-1H-pyrrolizin-7a(5H)-yl)methoxy)-8-(trifluoromethyl)-5,6-dihydro-4H-[1,4]oxazepino[5,6,7-de]quinazolin-9-yl)-2-amino-7-fluorobenzo[b]thiophene-3-carbonitrile]	≤ 2	≤ 2	≤ 2	≤ 2

Now from value to molecule:

IC50 (KRAS G12V) [µM]	IC50 (KRAS G12S) [µM]	IC50 (KRAS WT) [µM]	IC50 (KRAS G12D) [µM]	SMILES
≤ 2	≤ 2	≤ 2	≤ 2	C[C@H](c1cc(Cl)cnc1N)N1CCOc2c(C(F)(F)F)c(-c3ccc(F)c4sc(N)c(C#N)c34)c(F)c3nc(OCC4(CN5CC[C@@H](F)C5)CC4)nc1c23 [Compound 811, 2-amino-4-(4-((R)-1-(2-amino-5-chloropyridin-3-yl)ethyl)-10-fluoro-2-((1-(((R)-3-fluoropyrrolidin-1-yl)methyl)cyclopropyl)methoxy)-8-(trifluoromethyl)-5,6-dihydro-4H-[1,4]oxazepino[5,6,7-de]quinazolin-9-yl)-7-fluorobenzo[b]thiophene-3-carbonitrile]
≤ 2	≤ 2	≤ 2	≤ 2	N#Cc1c(N)sc2c(F)ccc(-c3c(C(F)(F)F)c4c5c(nc(OC[C@@]67CCCN6C[C@H](F)C7)nc5c3F)N([C@H](C/C=C/C(F)(F)F)c3cccnc3N)CCO4)c12 (single isomer, unassigned) [Compound 739]
≤ 2	≤ 2	≤ 2	≤ 2	C[C@H](c1cc(Cl)cnc1N)N1CCOc2c(C(F)(F)F)c(-c3ccc(F)c4sc(N)c(C#N)c34)c(F)c3nc(OCC4(CN5CCC6(CC5)CC6(F)F)CC4)nc1c23 [Compound 679, 2-amino-4-(4-((R)-1-(2-amino-5-chloropyridin-3-yl)ethyl)-2-((1-((1,1-difluoro-6-azaspiro[2.5]octan-6-yl)methyl)cyclopropyl)methoxy)-10-fluoro-8-(trifluoromethyl)-5,6-dihydro-4H-[1,4]oxazepino[5,6,7-de]quinazolin-9-yl)-7-fluorobenzo[b]thiophene-3-carbonitrile]
≤ 2	≤ 2	≤ 2	≤ 2	C[C@H](c1cc(F)cnc1N)N1CCOc2c(C(F)(F)F)c(-c3ccc(F)c4sc(N)c(C#N)c34)c(F)c3nc(OCC4(CN5CC[C@@H](F)C5)CC4)nc1c23 [Compound 644, 2-amino-4-(4-((R)-1-(2-amino-5-fluoropyridin-3-yl)ethyl)-10-fluoro-2-((1-(((R)-3-fluoropyrrolidin-1-yl)methyl)cyclopropyl)methoxy)-8-(trifluoromethyl)-5,6-dihydro-4H-[1,4]oxazepino[5,6,7-de]quinazolin-9-yl)-7-fluorobenzo[b]thiophene-3-carbonitrile]
≤ 2	≤ 2	≤ 2	≤ 2	C[C@H](c1cc(Cl)cnc1N)N1CCOc2c(C(F)(F)F)c(-c3ccc(F)c4sc(N)c(C#N)c34)c(F)c3nc(OC[C@@]45CCCN4CC(=C(F)F)C5)nc1c23 [Compound 793, 2-amino-4-(4-((R)-1-(2-amino-5-chloropyridin-3-yl)ethyl)-2-(((S)-2-(difluoromethylene)tetrahydro-1H-pyrrolizin-7a(5H)-yl)methoxy)-10-fluoro-8-(trifluoromethyl)-5,6-dihydro-4H-[1,4]oxazepino[5,6,7-de]quinazolin-9-yl)-7-fluorobenzo[b]thiophene-3-carbonitrile]
≤ 2	≤ 2	≤ 2	≤ 2	CN1CCC[C@H]1COc1nc2c3c(c(Cl)c(-c4ccc(F)c5sc(N)c(C#N)c45)c(F)c3n1)OCCN2C(c1cccnc1N)C(F)F (mixture of isomers) [Compound 769, 2-amino-4-(4-(1-(2-aminopyridin-3-yl)-2,2-difluoroethyl)-8-chloro-10-fluoro-2-(((S)-1-methylpyrrolidin-2-yl)methoxy)-5,6-dihydro-4H-[1,4]oxazepino[5,6,7-de]quinazolin-9-yl)-7-fluorobenzo[b]thiophene-3-carbonitrile]
≤ 2	≤ 2	≤ 2	≤ 2	CC[S+]([O-])[C@@H]1CN2CCC[C@@]2(COc2nc3c4c(c(Cl)c(-c5ccc(F)c6sc(N)c(C#N)c56)c(F)c4n2)OCCN3[C@H](C)c2cccnc2N)C1 (mixture of isomers) [Compound 780, 2-amino-4-(4-((R)-1-(2-aminopyridin-3-yl)ethyl)-8-chloro-2-(((2S,7aS)-2-(ethylsulfinyl)tetrahydro-1H-pyrrolizin-7a(5H)-yl)methoxy)-10-fluoro-5,6-dihydro-4H-[1,4]oxazepino[5,6,7-de]quinazolin-9-yl)-7-fluorobenzo[b]thiophene-3-carbonitrile]
≤ 2	≤ 2	≤ 2	≤ 2	N#Cc1c(N)sc2c(F)ccc(-c3c(C(F)(F)F)c4c5c(nc(OC[C@@]67CCCN6C[C@H](F)C7)nc5c3F)N([C@H](CCCN3CCCCC3)c3cccnc3N)CCO4)c12 (single isomer, unassigned) [Compound 704]
≤ 2	≤ 2	≤ 2	≤ 2	C[C@H](c1cc(F)cnc1N)N1CCOc2c(C(F)(F)F)c(-c3ccc(F)c4sc(N)c(C#N)c34)c(F)c3nc(OC[C@@]45CCCN4C[C@@]4(CC4(F)F)C5)nc1c23 [Compound 878, 2-amino-4-(4-((R)-1-(2-amino-5-fluoropyridin-3-yl)ethyl)-2-(((1S,7a′S)-2,2-difluorodihydro-1′H,3′H-spiro[cyclopropane-1,2′-pyrrolizin]-7a′(5′H)-yl)methoxy)-10-fluoro-8-(trifluoromethyl)-5,6-dihydro-4H-[1,4]oxazepino[5,6,7-de]quinazolin-9-yl)-7-fluorobenzo[b]thiophene-3-carbonitrile]
